{"source": "patent US6537267B1", "about": "“Method for chronic catheterization of the common bile duct of a laboratory rat” (priority 2001, dated 2003)", "experiment": "Determination of maximal biliary ICG excretion rate", "type": "in vivo, rat", "procedure": "Bile was obtained through the bile catheter by inserting a 23-gauge infusion set needle (Abbott Laboratories) from which all but 0.5 in of tubing had been removed, and approximately 24 inches of saline-filled PE 60 tubing attached. A sterile 1.5 mL sampling tube was attached to the tubing end, and bile was withdrawn by suspending the sampling tube below the cage using negative pressure. Bile was collected into tared sampling tubes at 5 minute intervals during a 90 minute period during which ICG was infused into the IVC at 50 μg/minute. ICG, 1 mL/h was delivered by a Razel Scientific (Stamford, Conn.) infusion pump with a 3 mL Becton Dickinson (Franklin Lakes, N.J.) syringe.\nBile flow rate was calculated using the net sampling tube weight assuming a bile density of 1 g/mL. A total of 10 μL of bile from each sample tube was aliquoted to determine ICG concentration. The remainder of the bile was infused into the duodenal catheter to maintain enterohepatic circulation of bile acids. Biliary ICG concentrations were measured spectrophotometrically at wavelength 805 nm. Biliary ICG excretion was calculated for each 5 minute interval by multiplying the bile flow rate by the biliary ICG concentration.\nTo establish a sensitive and reliable measure of hepatic dysfunction, the maximal biliary ICG excretion rate under physiologic conditions was determined. This measure, which detected even minor changes in biliary ICG excretion, was critical to subsequent primary studies. The animals were anesthetized with ketamine (60 mg/kg) and xylazine (5 mg/kg) intramuscularly. […] The blood concentrations and biliary excretion rates of ICG was measured during a constant infusion of ICG at 10, 20, 50, 100, and 200 μg/minute for 90 minutes in 8 rats that served as their own controls for the different doses on separate days. […] Biliary ICG excretion was measured as described above. Aortic blood samples (0.25 mL) were collected every 10 minutes and analyzed for ICG concentration. Following each blood draw, the animals were transfused with an equal volume of blood obtained immediately prior to transfusion from other untreated chronically catheterized rats that were previously designated as donors. […] After an initial 30 minute equilibration period mean biliary ICG excretion remained at a steady state concentration between 30 and 90 minutes of ICG infusion. […] The bile flow rate was unaffected by any of the tested ICG concentrations.", "key": {"[1]": {"settings": "ICG infusion 100 and 200 μg/minute"}}}
{"smiles": "CC1(C)C(/C=C/C=C/C=C/C=C2\\N(CCCCS(=O)(=O)O)c3ccc4ccccc4c3C2(C)C)=[N+](CCCCS(=O)(=O)[O-])c2ccc3ccccc3c21", "note": "[ICG, Indocyanine green]", "values": [{"measurement": "biliary ICG excretion rate between 30 and 90 minutes vs 50 μg/minute", "setting": "[1]", "value": "did not yield a greater biliary ICG excretion rate"}, {"measurement": "mean blood ICG concentrations between 30 and 90 minutes vs 50 μg/minute", "setting": "[1]", "value": "significantly increase mean blood ICG concentrations"}, {"measurement": "effect of ICG on bile flow rate", "setting": "any of the tested ICG concentrations (10-200 μg/minute)", "value": "unaffected"}, {"measurement": "equilibration period before steady state biliary ICG excretion", "setting": "constant ICG infusion", "value": 30, "unit": "min"}]}
